We go through one compound from ChEMBL document CHEMBL1629543, “Recovery of humoral immunity is critical for successful antiviral therapy in disseminated mouse adenovirus type 1 infection” (Antimicrob Agents Chemother, 2008).

Active and inactive are the calls of the source. The rule behind the calls is not given here.

The species entered for assay [1] is Mus musculus. The settings on record: BALB/c, T-cell, 100 mg/kg.
Description: Immunosuppressive activity against MAV-1 infected BALB/c mouse assessed as T cells suppression at 100 mg/kg, ip treated 8 days before infection for 4 weeks measured 14 days post infection by flow cytometry
The species entered for assay [2] is Mus musculus. To be noted: BALB/c, 100 mg/kg.
Description: Immunosuppressive activity against MAV-1 infected BALB/c mouse assessed as inhibition of production of protective antibodies at 100 mg/kg, ip treated 8 days before infection for 3 weeks measured after 62 days postinfection
The species named for assay [3] is Mus musculus. The settings on record: BALB/c, 100 mg/kg. This is another data set of the same source.
Description: Immunosuppressive activity against MAV-1 infected BALB/c mouse assessed as inhibition of production of protective antibodies at 100 mg/kg, ip treated 8 days before infection for 2 weeks measured after 62 days postinfection
A further assay relates to Murine adenovirus 1. The settings on record: Liver, 100 mg/kg.

Description for Murine adenovirus 1: Antiviral activity against MAV-1 infected in immunocompromized BALB/c mouse assessed as decrease in viral DNA load in liver at 100 mg/kg, ip treated 8 days before infection measured after 28 days post infection by RT-PCR

For the compound `O=P1(N(CCCl)CCCl)NCCCO1` (centres undefined), the inhibition entry in the assay filed under Mus musculus [1], in the assay filed under Mus musculus [3] and in the assay with Murine adenovirus 1 was “Active” each time. Moreover, the inhibition result in the assay filed under Mus musculus [2] is “inactive”.
